For 6 compounds, Emax and EC50 results are on record in US6936585B2, “Corticotropin releasing factor 2 receptor agonists” (priority 2002, dated 2005).

For orientation: Emax means the size of the effect at its maximum, as opposed to the concentration needed. In general, EC50 refers to the concentration needed to bring the measured effect to its halfway point.

One experiment has as its target T1, CRF1R (Homo sapiens, UniProt P34998).
T1 sequence (P34998 24-415): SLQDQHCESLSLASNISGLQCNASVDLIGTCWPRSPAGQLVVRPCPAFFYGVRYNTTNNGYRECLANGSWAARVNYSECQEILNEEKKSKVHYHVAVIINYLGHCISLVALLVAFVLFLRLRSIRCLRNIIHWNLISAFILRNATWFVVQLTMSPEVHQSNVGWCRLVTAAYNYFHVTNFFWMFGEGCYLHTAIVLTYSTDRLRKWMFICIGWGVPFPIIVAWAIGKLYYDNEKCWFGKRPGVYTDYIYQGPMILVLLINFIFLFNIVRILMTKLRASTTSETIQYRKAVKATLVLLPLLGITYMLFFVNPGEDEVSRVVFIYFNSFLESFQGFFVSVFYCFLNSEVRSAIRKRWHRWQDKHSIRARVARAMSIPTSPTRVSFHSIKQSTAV
The experiment is described as follows: CRF1R agonist activation (EC50 / Emax), called comparative CRF binding. In kind it is cell-based. As to conditions: for Emax: read-out: CRF1R Emax. The essentials:
(§1)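 Read-out is Gαs-driven cAMP induction, quantified directly in lysates or through CRE-reporter gene expression, after treating CRF1R- or CRF2R-expressing cells with peptide. Vehicle-treated cells serve as the comparison.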

The target of a further experiment is T2, CRF2R (Homo sapiens, UniProt Q13324).
T2 sequence (Q13324 1-411): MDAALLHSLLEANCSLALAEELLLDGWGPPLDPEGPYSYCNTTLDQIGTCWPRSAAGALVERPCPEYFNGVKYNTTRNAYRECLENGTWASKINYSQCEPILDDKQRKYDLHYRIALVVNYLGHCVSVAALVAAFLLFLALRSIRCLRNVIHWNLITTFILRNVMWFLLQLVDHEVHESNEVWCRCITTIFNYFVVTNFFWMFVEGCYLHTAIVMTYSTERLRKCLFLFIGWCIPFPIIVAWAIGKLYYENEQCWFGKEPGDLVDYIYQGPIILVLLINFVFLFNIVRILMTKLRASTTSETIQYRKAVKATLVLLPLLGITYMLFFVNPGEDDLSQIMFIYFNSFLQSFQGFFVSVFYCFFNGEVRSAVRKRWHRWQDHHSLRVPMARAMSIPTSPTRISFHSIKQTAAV
The experiment is described as follows: CRF2R agonist activation (EC50 / Emax), called comparative CRF binding. In kind it is cell-based. The conditions noted are these: for Emax: read-out: CRF2R Emax. The essentials: as §1

Like-named read-outs stand apart in the source and are kept apart here. Peptide text beside a SMILES is read from it.

Take `CC[C@H](C)[C@H](NC(=O)[C@H](C)NC(=O)[C@H](CC(N)=O)NC(=O)[C@H](CCC(N)=O)NC(=O)[C@H](CCC(=O)O)NC(=O)[C@H](C)NC(=O)[C@H](CCCNC(=N)N)NC(=O)[C@H](CCC(=O)O)NC(=O)[C@H](CCCNC(=N)N)NC(=O)[C@H](CCC(N)=O)NC(=O)[C@H](CO)NC(=O)[C@H](CCC(N)=O)NC(=O)[C@@H](NC(=O)[C@H](CCCNC(=N)N)NC(=O)[C@H](C)NC(=O)[C@H](CC(C)C)NC(=O)[C@H](CCC(=O)O)NC(=O)[C@H](CC(C)C)NC(=O)[C@H](CC(C)C)NC(=O)[C@@H](NC(=O)[C@H](CCCNC(=N)N)NC(=O)[C@H](CC(C)C)NC(=O)[C@H](CC(C)C)NC(=O)[C@H](Cc1ccccc1)NC(=O)[C@H](Cc1ccccc1)NC(=O)[C@@H]1CCCN1C(=O)[C@H](CC(C)C)NC(=O)[C@H](CC(=O)O)NC(=O)[C@@H](NC(=O)[C@H](CO)NC(=O)[C@H](CC(C)C)NC(=O)[C@H](CO)NC(=O)[C@@H]1CCCN1C(=O)[C@H](CC(N)=O)NC(=O)[C@@H](N)CC(=O)O)[C@@H](C)CC)[C@@H](C)O)[C@@H](C)O)C(=O)N[C@H](C(=O)N[C@@H](Cc1ccccc1)C(=O)N[C@@H](C)C(=O)N[C@@H](CO)C(=O)N[C@H](C(N)=O)C(C)C)[C@@H](C)CC` [compound 184] (H-DNPSLSIDLPFFLLRTLLELARTQSQRERAEQNAIIFASV-NH2; N-terminus assumed): the Emax turned out to be 77.3% on CRF1R and 96.5% at CRF2R.
With `CC[C@H](C)[C@H](NC(=O)[C@H](C)NC(=O)[C@H](CC(N)=O)NC(=O)[C@H](CCC(N)=O)NC(=O)[C@H](CCC(=O)O)NC(=O)[C@H](C)NC(=O)[C@H](CCCNC(=N)N)NC(=O)[C@H](CCC(=O)O)NC(=O)[C@H](CCCNC(=N)N)NC(=O)[C@H](CCC(N)=O)NC(=O)[C@H](CO)NC(=O)[C@H](CCC(N)=O)NC(=O)[C@@H](NC(=O)[C@H](CCCNC(=N)N)NC(=O)[C@H](C)NC(=O)[C@H](CC(C)C)NC(=O)[C@H](CCC(=O)O)NC(=O)[C@H](CC(C)C)NC(=O)[C@H](CC(C)C)NC(=O)[C@@H](NC(=O)[C@H](CCCNC(=N)N)NC(=O)[C@H](CC(C)C)NC(=O)[C@H](CC(C)C)NC(=O)[C@H](Cc1c[nH]cn1)NC(=O)[C@H](Cc1ccccc1)NC(=O)[C@@H]1CCCN1C(=O)[C@H](CC(C)C)NC(=O)[C@H](CC(=O)O)NC(=O)[C@@H](NC(=O)[C@H](CO)NC(=O)[C@H](CC(C)C)NC(=O)[C@H](CO)NC(=O)[C@@H]1CCCN1C(=O)[C@H](CC(N)=O)NC(=O)[C@@H](N)CC(=O)O)[C@@H](C)CC)[C@@H](C)O)[C@@H](C)O)C(=O)N[C@H](C(=O)N[C@@H](Cc1ccccc1)C(=O)N[C@@H](C)C(=O)N[C@@H](CO)C(=O)N[C@H](C(N)=O)C(C)C)[C@@H](C)CC` [compound 185] (H-DNPSLSIDLPFHLLRTLLELARTQSQRERAEQNAIIFASV-NH2; N-terminus assumed), the EC50 on CRF1R (read-out: CRF1R EC50) was determined as 0.358 µM; at CRF2R (read-out: CRF2R EC50) it was 0.00898 µM. The Emax is 95.8% on CRF1R and 100% at CRF2R.
On to `CC[C@H](C)[C@H](N)C(=O)N[C@H](C(=O)N[C@@H](CC(C)C)C(=O)N[C@@H](CO)C(=O)N[C@@H](CC(C)C)C(=O)N[C@@H](CC(=O)O)C(=O)N[C@H](C(=O)N[C@H](C(=O)N[C@H](C(=O)NCC(=O)N[C@@H](CC(C)C)C(=O)N[C@@H](CC(C)C)C(=O)N[C@@H](CCC(N)=O)C(=O)N[C@H](C(=O)N[C@@H](CC(C)C)C(=O)N[C@@H](CC(C)C)C(=O)N[C@@H](CCC(=O)O)C(=O)N[C@@H](CCC(N)=O)C(=O)N[C@@H](C)C(=O)N[C@@H](CCCNC(=N)N)C(=O)N[C@@H](C)C(=O)N[C@@H](CCCNC(=N)N)C(=O)N[C@@H](C)C(=O)N[C@@H](C)C(=O)N[C@@H](CCCNC(=N)N)C(=O)N[C@@H](CCC(=O)O)C(=O)N[C@@H](CCC(N)=O)C(=O)N[C@@H](C)C(=O)N[C@H](C(=O)N[C@H](C(=O)N[C@@H](CC(N)=O)C(=O)N[C@@H](C)C(=O)N[C@@H](CCCNC(=N)N)C(=O)N[C@H](C(=O)N[C@@H](CC(C)C)C(=O)N[C@@H](C)C(=O)N[C@@H](CCCNC(=N)N)C(=O)N[C@H](C(N)=O)C(C)C)[C@@H](C)CC)[C@@H](C)O)[C@@H](C)O)[C@@H](C)CC)[C@@H](C)CC)C(C)C)C(C)C)C(C)C` [compound 214] (H-IVLSLDVVIGLLQILLEQARARAAREQATTNARILARV-NH2; N-terminus assumed), for which the maximal effect (Emax) was 4% on CRF1R and 60% on CRF2R.
For `CC[C@H](C)[C@H](NC(=O)[C@H](C)NC(=O)[C@H](CC(N)=O)NC(=O)[C@H](CCC(N)=O)NC(=O)[C@H](CCC(=O)O)NC(=O)[C@H](C)NC(=O)[C@H](CCCNC(=N)N)NC(=O)[C@H](CCC(=O)O)NC(=O)[C@H](CCCNC(=N)N)NC(=O)[C@H](CCC(N)=O)NC(=O)[C@H](CO)NC(=O)[C@H](CCC(N)=O)NC(=O)[C@@H](NC(=O)[C@H](CCCNC(=N)N)NC(=O)[C@H](C)NC(=O)[C@H](CC(C)C)NC(=O)[C@H](CCC(=O)O)NC(=O)[C@H](CC(C)C)NC(=O)[C@H](CC(C)C)NC(=O)[C@@H](NC(=O)[C@H](CCCNC(=N)N)NC(=O)[C@H](CC(C)C)NC(=O)[C@H](CC(C)C)NC(=O)[C@H](Cc1ccc(O)cc1)NC(=O)[C@H](Cc1ccc(O)cc1)NC(=O)[C@@H]1CCCN1C(=O)[C@H](CC(C)C)NC(=O)[C@H](CC(=O)O)NC(=O)[C@@H](NC(=O)[C@H](CO)NC(=O)[C@H](CC(C)C)NC(=O)[C@H](CO)NC(=O)[C@@H]1CCCN1C(=O)[C@H](CC(N)=O)NC(=O)[C@@H](N)CC(=O)O)[C@@H](C)CC)[C@@H](C)O)[C@@H](C)O)C(=O)N[C@H](C(=O)N[C@@H](Cc1ccccc1)C(=O)N[C@@H](C)C(=O)N[C@@H](CO)C(=O)N[C@H](C(N)=O)C(C)C)[C@@H](C)CC` [compound 263] (H-DNPSLSIDLPYYLLRTLLELARTQSQRERAEQNAIIFASV-NH2; N-terminus assumed) the same measures were 72% and 93%.
Take `CC[C@H](C)[C@H](N)C(=O)N[C@H](C(=O)N[C@@H](CC(C)C)C(=O)N[C@@H](CO)C(=O)N[C@@H](CC(C)C)C(=O)N[C@@H](CC(=O)O)C(=O)N[C@H](C(=O)N1CCC[C@H]1C(=O)N[C@H](C(=O)NCC(=O)N[C@@H](CC(C)C)C(=O)N[C@@H](CC(C)C)C(=O)N[C@@H](CCC(N)=O)C(=O)N[C@@H](CCCCN)C(=O)N[C@H](C(=O)N[C@H](C(=O)N[C@@H](CCC(=O)O)C(=O)N[C@H](C(=O)N[C@@H](CCC(=O)O)C(=O)N[C@@H](CCCCN)C(=O)N[C@@H](CCC(N)=O)C(=O)N[C@@H](CCC(=O)O)C(=O)N[C@@H](CCCCN)C(=O)N[C@@H](CCC(=O)O)C(=O)N[C@@H](CCCCN)C(=O)N[C@@H](CCC(N)=O)C(=O)N[C@@H](CCC(N)=O)C(=O)N[C@@H](C)C(=O)N[C@H](C(=O)N[C@H](C(=O)N[C@@H](CC(N)=O)C(=O)N[C@@H](C)C(=O)N[C@@H](CCCNC(=N)N)C(=O)N[C@H](C(=O)N[C@@H](CC(C)C)C(=O)N[C@@H](C)C(=O)N[C@@H](CCCNC(=N)N)C(=O)N[C@H](C(N)=O)C(C)C)[C@@H](C)CC)[C@@H](C)O)[C@@H](C)O)[C@@H](C)CC)[C@@H](C)CC)C(C)C)[C@@H](C)CC)C(C)C)C(C)C` [compound 300] (H-IVLSLDVPIGLLQKVIEIEKQEKEKQQATTNARILARV-NH2; N-terminus assumed): the Emax at CRF1R turned out to be 7.95%; at CRF2R, 100%.
`CC[C@H](C)[C@H](N)C(=O)N[C@H](C(=O)N[C@@H](CC(C)C)C(=O)N[C@@H](CO)C(=O)N[C@@H](CC(C)C)C(=O)N[C@@H](CC(=O)O)C(=O)N[C@H](C(=O)N1CCC[C@H]1C(=O)N[C@H](C(=O)NCC(=O)N[C@@H](CC(C)C)C(=O)N[C@@H](CC(C)C)C(=O)N[C@@H](CCC(N)=O)C(=O)N[C@@H](CCCCN)C(=O)N[C@@H](CCSC)C(=O)N[C@H](C(=O)N[C@@H](CCC(=O)O)C(=O)N[C@H](C(=O)N[C@@H](CCC(=O)O)C(=O)N[C@@H](CCCCN)C(=O)N[C@@H](CCC(N)=O)C(=O)N[C@@H](CCC(=O)O)C(=O)N[C@@H](CCCCN)C(=O)N[C@@H](CCC(=O)O)C(=O)N[C@@H](CCCCN)C(=O)N[C@@H](CCC(N)=O)C(=O)N[C@@H](CCC(N)=O)C(=O)N[C@@H](C)C(=O)N[C@H](C(=O)N[C@H](C(=O)N[C@@H](CC(N)=O)C(=O)N[C@@H](C)C(=O)N[C@@H](CCCNC(=N)N)C(=O)N[C@H](C(=O)N[C@@H](CC(C)C)C(=O)N[C@@H](C)C(=O)N[C@@H](CCCNC(=N)N)C(=O)N[C@H](C(N)=O)C(C)C)[C@@H](C)CC)[C@@H](C)O)[C@@H](C)O)[C@@H](C)CC)[C@@H](C)CC)[C@@H](C)CC)C(C)C)C(C)C` [compound 322] (H-IVLSLDVPIGLLQKMIEIEKQEKEKQQATTNARILARV-NH2; N-terminus assumed): the EC50 is at least 1 µM on CRF1R (CRF1R EC50) and 0.0231 µM at CRF2R. Moreover, the Emax at CRF1R is 10.7%; at CRF2R, 96.5%.
